Source: publication PMC6934184, “Selective DNA-PKcs inhibition extends the therapeutic index of localized radiotherapy and chemotherapy” (The Journal of Clinical Investigation, 2019)

System: FLT3 ITD
Test: SelectScreen LanthaScreen
Assay type: binding
Conditions: 1 µM
Method in brief: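 NU5455 was profiled across the SelectScreen Broad panel of kinase activity and binding assays. Z'LYTE reactions such as CSF1R ran at apparent Km ATP, while the Adapta CAMK1 assay used ATP listed as 10. Values are given as percent.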

CN(C(=O)CN1CCOCC1)c1ccc2sc3c(-c4cccc5c(=O)cc(N6CC7CCC(C6)O7)oc45)cccc3c2c1 [NU5455]
% displacement: -11.6%
